IC50 data for 17 compounds are collected here from patent US8642626B2, “Ethinyl-pyrazole derivative” (Taisho Pharmaceutical Co., Ltd., priority 2010, dated 2014).

Usually IC50 stands for the concentration at which inhibition is half-maximal. A low value points to higher potency.

The target in the first test is T1, rat metabotropic glutamate receptor (mGlu2) (Rattus norvegicus, UniProt P31421).
T1 construct: expressed in transfected cells
T1 sequence (P31421 19-872): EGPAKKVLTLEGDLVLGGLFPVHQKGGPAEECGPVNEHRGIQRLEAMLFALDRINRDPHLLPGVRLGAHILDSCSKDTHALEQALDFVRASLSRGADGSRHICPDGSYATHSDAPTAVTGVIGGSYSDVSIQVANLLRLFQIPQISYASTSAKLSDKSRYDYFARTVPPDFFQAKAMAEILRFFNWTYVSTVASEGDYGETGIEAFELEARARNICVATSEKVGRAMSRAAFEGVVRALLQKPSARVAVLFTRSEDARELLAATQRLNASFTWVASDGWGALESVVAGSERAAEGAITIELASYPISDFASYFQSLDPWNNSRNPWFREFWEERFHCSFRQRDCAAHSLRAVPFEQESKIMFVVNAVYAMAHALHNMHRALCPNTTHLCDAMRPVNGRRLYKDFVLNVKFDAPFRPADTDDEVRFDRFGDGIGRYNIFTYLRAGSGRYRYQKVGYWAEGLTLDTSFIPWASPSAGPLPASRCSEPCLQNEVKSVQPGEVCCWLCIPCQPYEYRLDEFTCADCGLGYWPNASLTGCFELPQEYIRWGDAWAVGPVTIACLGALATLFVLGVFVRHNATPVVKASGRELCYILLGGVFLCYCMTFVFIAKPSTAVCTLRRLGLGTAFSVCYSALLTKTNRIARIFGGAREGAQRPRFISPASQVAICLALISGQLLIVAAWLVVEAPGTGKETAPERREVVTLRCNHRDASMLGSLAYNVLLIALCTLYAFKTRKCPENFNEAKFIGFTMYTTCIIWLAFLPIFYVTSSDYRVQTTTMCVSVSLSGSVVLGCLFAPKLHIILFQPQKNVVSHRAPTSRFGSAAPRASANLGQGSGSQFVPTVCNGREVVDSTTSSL
The test can be described thus: [35S]GTPγS binding test (1), crude membrane fraction of CHO cells stably expressing rat mGlu2. The class given is biochemical. To be noted: inhibition of glutamic acid (20 μM)-stimulated specific [35S]GTPγS binding, rat mGlu2 CHO membranes. As to the method: [^35S]GTPγS Binding Test (1)
(Preparation of Crude Membrane Fraction of CHO Cells Stably Expressing the Rat Metabotropic Glutamate Receptor (mGlu2))
(§1) CHO cells stably expressing the rat mGlu2 were cultured in a 10% dialyzed fetal bovine serum-containing Dulbecco's Modified Eagle's Medium [1% proline, 50 units/mL penicillin, 50 μg/mL streptomycin, and 2 mM L-glutamine (to be added when used)] at 37° C. in 5% CO2. Confluent cells were washed with PBS(−) twice, and were then harvested with a cell scraper. Then, the cells were centrifuged at 4° C. at 1000 rpm for 5 minutes to collect. The obtained precipitate was suspended in a 20 mM HEPES buffer (pH 7.4), and then homogenized with a Teflon (registered trademark) homogenizer. The resultant was centrifuged at 4° C. at 48,000×g for 20 minutes to obtain a precipitate again. The obtained precipitate was washed twice by centrifugation, and was then homogenized with the above-mentioned buffer, so as to obtain a crude membrane fraction. The obtained crude membrane fraction was preserved at −80° C.
The frozen membrane fraction as prepared above was thawed when used, and it was then diluted with a binding test buffer (final concentration: 20 mM HEPES, 100 mM NaCl, 10 mM MgCl2, 8.4 μM GDP, 10 μg/mL saponin, and 0.1% BSA). The compound of the Example was added to a membrane fraction (10 μg protein/assay), and the obtained mixture was then incubated at 30° C. for 20 minutes. Thereafter, glutamic acid (final concentration: 20 μM; but it was 30 μM only in the compounds 1 and 40 of the Examples) and [^35S]GTPγS (final concentration: 0.15 nM) were added to the reaction mixture, and then incubated at 30° C. for 1 hour. After completion of the incubation, the reaction mixture was subjected to filtration over a Whatman GF/C filter that had previously been immersed in a 20 mM HEPES buffer (pH 7.4), and the filter was then washed three times with 300 μL of ice-cold 20 mM HEPES buffer (pH 7.4). A scintillation cocktail was added to the resulting filter, and membrane-bound radioactivity was then measured with a liquid scintillation counter.
The amount of [^35S]GTPγS bound in the case of carrying out the above described reaction in the absence of glutamic acid was defined as non-specific binding. The difference between such non-specific bound and the amount of [^35S]GTPγS bound in the presence of glutamic acid was defined as specific binding. Using non-linear analysis, a concentration-inhibition curve was produced. The concentration of the compound of each Example that caused 50% inhibition (IC50 value) of specific binding was determined from each concentration-inhibition curve.
Take `Cc1nn(C)c(COc2ccc(C(F)(F)F)cc2)c1C#Cc1cccc(S(N)(=O)=O)c1` [Example 81, 3-[(1,3-dimethyl-5-{[4-(trifluoromethyl)phenoxy]methyl}-1H-pyrazol-4-yl)ethynyl]benzenesulfonamide]: the IC50 was determined as 14.6 nM. This counts as double-digit nanomolar.
Still for that read-out and setting: then `Cn1ncc(C#Cc2cccc(S(N)(=O)=O)c2)c1CCc1cccc(C(F)(F)F)c1` [Example 94, 3-[(1-methyl-5-{2-[3-(trifluoromethyl)phenyl]ethyl}-1H-pyrazol-4-yl)ethynyl]benzenesulfonamide], with 18.2 nM; and `Cn1ncc(C#Cc2cccc(S(N)(=O)=O)c2)c1OCc1ccc(C(F)(F)F)cc1` [Example 89, 3-[(1-methyl-5-{[4-(trifluoromethyl)benzyl]oxy}-1H-pyrazol-4-yl)ethynyl]benzenesulfonamide], with 55.1 nM; and `Cn1ncc(C#Cc2ccc(S(N)(=O)=O)cc2)c1N1Cc2ccc(Cl)cc2C1` [Example 58, 4-{[5-(5-chloro-1,3-dihydro-2H-isoindol-2-yl)-1-methyl-1H-pyrazol-4-yl]ethynyl}benzenesulfonamide], with 13.8 nM.
Regarding `Cn1ncc(C#Cc2cccc(S(N)(=O)=O)c2)c1CCOc1ccc(C(F)(F)F)cc1` [Example 106, 3-[(1-methyl-5-{2-[4-(trifluoromethyl)phenoxy]ethyl}-1H-pyrazol-4-yl)ethynyl]benzenesulfonamide], the IC50 was 7.88 nM.
Compound `Cn1ncc(C#Cc2cccc(S(N)(=O)=O)c2)c1COc1ccc(C#N)cc1` [Example 100, 3-({5-[(4-cyanophenoxy)methyl]-1-methyl-1H-pyrazol-4-yl}ethynyl)benzenesulfonamide] came in with an IC50 of 61.8 nM.
Regarding `Cn1ncc(C#Cc2cccc(S(N)(=O)=O)c2)c1-c1cc(-c2ccc(C(F)(F)F)cc2)no1` [Example 87, 3-[(1-methyl-5-{3-[4-(trifluoromethyl)phenyl]-1,2-oxazol-5-yl}-1H-pyrazol-4-yl)ethynyl]benzenesulfonamide], the 50% inhibitory concentration (IC50) is 3.43 nM.
The same measure, in the same setting: the result for `Cn1ncc(C#Cc2ccc(S(N)(=O)=O)cc2F)c1CCc1ccc(C(F)(F)F)cc1` [Example 83, 3-fluoro-4-[(1-methyl-5-{2-[4-(trifluoromethyl)phenyl]ethyl}-1H-pyrazol-4-yl)ethynyl]benzenesulfonamide] reads 22 nM; that for `Cn1ncc(C#Cc2ccc(S(N)(=O)=O)cc2)c1-c1nc(-c2ccc(C(F)(F)F)cc2)no1` [Example 73, 4-[(1-methyl-5-{3-[4-(trifluoromethyl)phenyl]-1,2,4-oxadiazol-5-yl}-1H-pyrazol-4-yl)ethynyl]benzenesulfonamide], 2.1 nM.
`Cn1ncc(C#Cc2ccc(S(N)(=O)=O)cc2)c1-c1cnn(-c2ccc(C(F)(F)F)cc2)c1` [Example 64, 4-({2-methyl-1′-[4-(trifluoromethyl)phenyl]-1′H,2H-3,4′-bipyrazol-4-yl}ethynyl)benzenesulfonamide] gave an IC50 of 9.77 nM.
For the compound `Cn1ncc(C#Cc2ccc(S(N)(=O)=O)cc2)c1-c1ccc(C(F)(F)F)cn1` [Example 50, 4-({1-methyl-5-[5-(trifluoromethyl)pyridin-2-yl]-1H-pyrazol-4-yl}ethynyl)benzenesulfonamide], the half-inhibitory concentration (IC50) worked out at 76.4 nM.
As to `Cn1ncc(C#Cc2cccc(S(N)(=O)=O)c2)c1CNc1ccc(C(F)(F)F)cc1` [Example 98], the IC50 stood at 42.8 nM.
Same read-out and setting: then `Cn1ncc(C#Cc2cccc(S(N)(=O)=O)c2)c1COc1ccc(C(F)(F)F)cc1` [Example 84, 3-[(1-methyl-5-{[4-(trifluoromethyl)phenoxy]methyl}-1H-pyrazol-4-yl)ethynyl]benzenesulfonamide], with 2.72 nM.

The same test, now with this note: inhibition of glutamic acid (30 μM, only compounds 1 and 40)-stimulated specific [35S]GTPγS binding, rat mGlu2 CHO membranes.
As for `Cn1ncc(C#Cc2cccc(S(N)(=O)=O)c2)c1N1Cc2cc3ccccc3cc2C1` [Example 40, 3-{[5-(1,3-dihydro-2H-benzo[f]isoindol-2-yl)-1-methyl-1H-pyrazol-4-yl]ethynyl}benzenesulfonamide], the half-inhibitory concentration (IC50) was determined as 24.2 nM.
On to `CN(C)CCNS(=O)(=O)c1cccc(C#Cc2cnn(C)c2-c2ccc(C(F)(F)F)cc2)c1` [Example 1, N-[2-(dimethylamino)ethyl]-3-({1-methyl-5-[4-(trifluoromethyl)phenyl]-1H-pyrazol-4-yl}ethynyl)benzenesulfonamide], for which the IC50 is 158 nM.

The target of the next test is T2, human metabotropic glutamate receptor (mGlu2) (Homo sapiens, UniProt Q14416).
T2 construct: expressed in transfected cells
T2 sequence (Q14416 19-872): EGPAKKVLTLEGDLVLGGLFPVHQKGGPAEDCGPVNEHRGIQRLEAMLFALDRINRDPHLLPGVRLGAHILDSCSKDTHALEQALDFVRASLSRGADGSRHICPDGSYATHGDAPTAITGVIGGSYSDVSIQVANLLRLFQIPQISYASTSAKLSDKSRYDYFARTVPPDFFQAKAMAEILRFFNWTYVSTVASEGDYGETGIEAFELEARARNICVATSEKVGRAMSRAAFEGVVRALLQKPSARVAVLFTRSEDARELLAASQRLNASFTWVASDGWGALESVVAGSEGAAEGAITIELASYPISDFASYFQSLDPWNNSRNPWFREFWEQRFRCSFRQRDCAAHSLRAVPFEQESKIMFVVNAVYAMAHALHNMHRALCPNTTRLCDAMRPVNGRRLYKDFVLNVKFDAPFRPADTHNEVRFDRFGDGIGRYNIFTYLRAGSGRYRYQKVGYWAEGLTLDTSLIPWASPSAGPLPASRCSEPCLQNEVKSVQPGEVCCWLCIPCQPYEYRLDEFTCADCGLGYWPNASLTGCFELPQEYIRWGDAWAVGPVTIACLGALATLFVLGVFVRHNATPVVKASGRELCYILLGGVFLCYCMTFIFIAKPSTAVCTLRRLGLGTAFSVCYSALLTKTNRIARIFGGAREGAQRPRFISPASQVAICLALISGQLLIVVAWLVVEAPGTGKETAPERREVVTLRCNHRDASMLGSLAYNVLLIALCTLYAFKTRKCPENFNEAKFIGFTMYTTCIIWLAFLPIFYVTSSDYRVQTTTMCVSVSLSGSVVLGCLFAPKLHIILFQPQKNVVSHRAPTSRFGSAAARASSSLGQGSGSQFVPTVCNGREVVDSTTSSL
The test can be described thus: [35S]GTPγS binding test (2), crude membrane fraction of CHO cells stably expressing human mGlu2. To be noted: inhibition of glutamic acid (20 μM)-stimulated specific [35S]GTPγS binding, human mGlu2 CHO membranes. The class given is biochemical. The method, then:
[^35S]GTPγS Binding Test (2)
(Preparation of Crude Membrane Fraction of CHO Cells Stably Expressing the Human Metabotropic Glutamate Receptor (mGlu2))
as §1, with “human” for “rat”, “mGlu2 receptor” for “mGlu2”, “streptomycin, 400 μg/mL hygromycin B,” for “streptomycin,”, “The obtained crude membrane fraction was preserved at −80° C.” left out
The frozen membrane fraction as prepared above was thawed when used, and it was then diluted with a binding test buffer (final concentration: 20 mM HEPES, 100 mM NaCl, 10 mM MgCl2, 8.4 μM GDP, 10 μg/mL saponin, and 0.1% BSA). […] A scintillation cocktail was added to the resulting filter, and membrane-bound radioactivity was then measured with a liquid scintillation counter. […]
In the case of `Cn1ncc(C#Cc2ccc(S(N)(=O)=O)cc2)c1COc1ccc(F)cn1` [Example 108, 4-[(5-{[(5-fluoropyridin-2-yl)oxy]methyl}-1-methyl-1H-pyrazol-4-yl)ethynyl]benzenesulfonamide], the IC50 was 9.22 nM.
Take `Cn1ncc(C#Cc2ccc(S(N)(=O)=O)cc2)c1COc1ccc(C(F)(F)F)cn1` [Example 109, 4-{[1-methyl-5-({[5-(trifluoromethyl)pyridin-2-yl]oxy}methyl)-1H-pyrazol-4-yl]ethynyl}benzenesulfonamide]: the IC50 is 1.22 nM.
